Data reported in ChEMBL document CHEMBL3046405, “Knockdown of several components of cytochrome P450 enzyme systems by RNA interference enhances the susceptibility of Helicoverpa armigera to fenvalerate” (2012).

How the values were obtained:
Type in all cases: functional
[1] = test system: Helicoverpa armigera; test: Insecticidal activity against fenvalerate-resistant Helicoverpa armigera HDFR third-instar larvae injected with dsCYP6B7-313-1 dsRNA plus dsCPR-403-1 dsRNA and dsCyt-b5-4 dsRNA assessed as compound level per larva causing mortality after 12 hr
[2] = test system: Helicoverpa armigera; test: Insecticidal activity against fenvalerate-resistant Helicoverpa armigera HDFR third-instar larvae injected with dsCYP6B7-313-1 dsRNA plus dsCyt-b5-4 dsRNA assessed as compound level per larva causing mortality after 12 hr
[3] = test system: Helicoverpa armigera; test: Insecticidal activity against fenvalerate-resistant Helicoverpa armigera HDFR third-instar larvae injected with dsCYP6B7-313-1 dsRNA plus dsCPR-403-1 dsRNA assessed as compound level per larva causing mortality after 12 hr
[4] = test system: Helicoverpa armigera; test: Insecticidal activity against fenvalerate-resistant Helicoverpa armigera HDFR third-instar larvae injected with dsCYP6B7-313-1 dsRNA assessed as compound level per larva causing mortality after 12 hr
[5] = test system: Helicoverpa armigera; test: Insecticidal activity against fenvalerate-resistant Helicoverpa armigera HDFR third-instar larvae injected with TE buffer assessed as compound level per larva causing mortality after 12 hr
[6] = test system: Helicoverpa armigera; test: Insecticidal activity against fenvalerate-resistant Helicoverpa armigera HDFR third-instar larvae without dsRNA injection assessed as compound level per larva causing mortality after 12 hr
[7] = test system: Helicoverpa armigera; test: Resistance index, ratio of LD50 for fenvalerate-resistant Helicoverpa armigera HDFR third-instar larvae to LD50 for fenvalerate-susceptible Helicoverpa armigera third-instar larvae
[8] = test system: Helicoverpa armigera; test: Insecticidal activity against fenvalerate-resistant Helicoverpa armigera HDFR third-instar larvae assessed as compound level per larva causing mortality after 48 hr
[9] = test system: Helicoverpa armigera; test: Insecticidal activity against fenvalerate-susceptible Helicoverpa armigera third-instar larvae assessed as compound level per larva causing mortality after 48 hr
[10] = test system: Helicoverpa armigera; test: Insecticidal activity against fenvalerate-resistant Helicoverpa armigera HDFR third-instar larvae injected with dsCYP6B7-313-1 dsRNA plus dsCPR-403-1 dsRNA and dsCyt-b5-4 dsRNA assessed as insect mortality at 4 to 16 ug/larva after 48 hr (fenvalerate alone control = 29.1 to 50.0%)
[11] = test system: Helicoverpa armigera; test: Insecticidal activity against fenvalerate-resistant Helicoverpa armigera HDFR third-instar larvae injected with dsCYP6B7-313-1 dsRNA plus dsCyt-b5-4 dsRNA assessed as insect mortality at 4 to 16 ug/larva after 48 hr (fenvalerate alone control = 29.1 to 50.0%)
[12] = test system: Helicoverpa armigera; test: Potency index, ratio of LD50 for fenvalerate-resistant Helicoverpa armigera HDFR third-instar larvae injected with TE buffer to LD50 for fenvalerate-resistant Helicoverpa armigera HDFR third-instar larvae injected with dsCYP6B7-313-1 dsRNA after 24 hr
[13] = test system: Helicoverpa armigera; test: Insecticidal activity against fenvalerate-resistant Helicoverpa armigera HDFR third-instar larvae injected with dsCYP6B7-313-1 dsRNA plus dsCPR-403-1 dsRNA assessed as insect mortality at 4 to 16 ug/larva after 48 hr (fenvalerate alone control = 29.1 to 50.0%)
[14] = test system: Helicoverpa armigera; test: Insecticidal activity against fenvalerate-resistant Helicoverpa armigera HDFR third-instar larvae injected with dsCYP6B7-313-1 dsRNA assessed as insect mortality at 4 to 16 ug/larva after 48 hr (fenvalerate alone control = 29.1 to 50.0%)
[15] = test system: Helicoverpa armigera; test: Potency index, ratio of LD50 for fenvalerate-resistant Helicoverpa armigera HDFR third-instar larvae injected with TE buffer to LD50 for fenvalerate-resistant Helicoverpa armigera HDFR third-instar larvae injected with dsCYP6B7-313-1 dsRNA plus dsCPR-403-1 dsRNA and dsCyt-b5-4 dsRNA after 48 hr
[16] = test system: Helicoverpa armigera; test: Potency index, ratio of LD50 for fenvalerate-resistant Helicoverpa armigera HDFR third-instar larvae injected with TE buffer to LD50 for fenvalerate-resistant Helicoverpa armigera HDFR third-instar larvae injected with dsCYP6B7-313-1 dsRNA plus dsCyt-b5-4 dsRNA after 48 hr
[17] = test system: Helicoverpa armigera; test: Potency index, ratio of LD50 for fenvalerate-resistant Helicoverpa armigera HDFR third-instar larvae injected with TE buffer to LD50 for fenvalerate-resistant Helicoverpa armigera HDFR third-instar larvae injected with dsCYP6B7-313-1 dsRNA plus dsCPR-403-1 after 48 hr
[18] = test system: Helicoverpa armigera; test: Potency index, ratio of LD50 for fenvalerate-resistant Helicoverpa armigera HDFR third-instar larvae injected with TE buffer to LD50 for fenvalerate-resistant Helicoverpa armigera HDFR third-instar larvae injected with dsCYP6B7-313-1 dsRNA after 48 hr
[19] = test system: Helicoverpa armigera; test: Potency index, ratio of LD50 for fenvalerate-resistant Helicoverpa armigera HDFR third-instar larvae injected with TE buffer to LD50 for fenvalerate-resistant Helicoverpa armigera HDFR third-instar larvae injected with dsCYP6B7-313-1 dsRNA plus dsCPR-403-1 dsRNA and dsCyt-b5-4 dsRNA after 36 hr
[20] = test system: Helicoverpa armigera; test: Potency index, ratio of LD50 for fenvalerate-resistant Helicoverpa armigera HDFR third-instar larvae injected with TE buffer to LD50 for fenvalerate-resistant Helicoverpa armigera HDFR third-instar larvae injected with dsCYP6B7-313-1 dsRNA plus dsCyt-b5-4 dsRNA after 36 hr
[21] = test system: Helicoverpa armigera; test: Potency index, ratio of LD50 for fenvalerate-resistant Helicoverpa armigera HDFR third-instar larvae injected with TE buffer to LD50 for fenvalerate-resistant Helicoverpa armigera HDFR third-instar larvae injected with dsCYP6B7-313-1 dsRNA plus dsCPR-403-1 after 36 hr
[22] = test system: Helicoverpa armigera; test: Potency index, ratio of LD50 for fenvalerate-resistant Helicoverpa armigera HDFR third-instar larvae injected with TE buffer to LD50 for fenvalerate-resistant Helicoverpa armigera HDFR third-instar larvae injected with dsCYP6B7-313-1 dsRNA after 36 hr
[23] = test system: Helicoverpa armigera; test: Potency index, ratio of LD50 for fenvalerate-resistant Helicoverpa armigera HDFR third-instar larvae injected with TE buffer to LD50 for fenvalerate-resistant Helicoverpa armigera HDFR third-instar larvae injected with dsCYP6B7-313-1 dsRNA plus dsCPR-403-1 dsRNA and dsCyt-b5-4 dsRNA after 24 hr
[24] = test system: Helicoverpa armigera; test: Potency index, ratio of LD50 for fenvalerate-resistant Helicoverpa armigera HDFR third-instar larvae injected with TE buffer to LD50 for fenvalerate-resistant Helicoverpa armigera HDFR third-instar larvae injected with dsCYP6B7-313-1 dsRNA plus dsCyt-b5-4 dsRNA after 24 hr
[25] = test system: Helicoverpa armigera; test: Potency index, ratio of LD50 for fenvalerate-resistant Helicoverpa armigera HDFR third-instar larvae injected with TE buffer to LD50 for fenvalerate-resistant Helicoverpa armigera HDFR third-instar larvae injected with dsCYP6B7-313-1 dsRNA plus dsCPR-403-1 after 24 hr
[26] = test system: Helicoverpa armigera; test: Potency index, ratio of LD50 for fenvalerate-resistant Helicoverpa armigera HDFR third-instar larvae injected with TE buffer to LD50 for fenvalerate-resistant Helicoverpa armigera HDFR third-instar larvae injected with dsCYP6B7-313-1 dsRNA plus dsCPR-403-1 dsRNA and dsCyt-b5-4 dsRNA after 12 hr
[27] = test system: Helicoverpa armigera; test: Potency index, ratio of LD50 for fenvalerate-resistant Helicoverpa armigera HDFR third-instar larvae injected with TE buffer to LD50 for fenvalerate-resistant Helicoverpa armigera HDFR third-instar larvae injected with dsCYP6B7-313-1 dsRNA plus dsCyt-b5-4 dsRNA after 12 hr
[28] = test system: Helicoverpa armigera; test: Potency index, ratio of LD50 for fenvalerate-resistant Helicoverpa armigera HDFR third-instar larvae injected with TE buffer to LD50 for fenvalerate-resistant Helicoverpa armigera HDFR third-instar larvae injected with dsCYP6B7-313-1 dsRNA plus dsCPR-403-1 after 12 hr
[29] = test system: Helicoverpa armigera; test: Potency index, ratio of LD50 for fenvalerate-resistant Helicoverpa armigera HDFR third-instar larvae injected with TE buffer to LD50 for fenvalerate-resistant Helicoverpa armigera HDFR third-instar larvae injected with dsCYP6B7-313-1 dsRNA after 12 hr
[30] = test system: Helicoverpa armigera; test: Insecticidal activity against fenvalerate-resistant Helicoverpa armigera HDFR third-instar larvae injected with dsCYP6B7-313-1 dsRNA plus dsCPR-403-1 dsRNA and dsCyt-b5-4 dsRNA assessed as compound level per larva causing mortality after 48 hr
[31] = test system: Helicoverpa armigera; test: Insecticidal activity against fenvalerate-resistant Helicoverpa armigera HDFR third-instar larvae injected with dsCYP6B7-313-1 dsRNA plus dsCyt-b5-4 dsRNA assessed as compound level per larva causing mortality after 48 hr
[32] = test system: Helicoverpa armigera; test: Insecticidal activity against fenvalerate-resistant Helicoverpa armigera HDFR third-instar larvae injected with dsCYP6B7-313-1 dsRNA plus dsCPR-403-1 dsRNA assessed as compound level per larva causing mortality after 48 hr
[33] = test system: Helicoverpa armigera; test: Insecticidal activity against fenvalerate-resistant Helicoverpa armigera HDFR third-instar larvae injected with dsCYP6B7-313-1 dsRNA assessed as compound level per larva causing mortality after 48 hr
[34] = test system: Helicoverpa armigera; test: Insecticidal activity against fenvalerate-resistant Helicoverpa armigera HDFR third-instar larvae injected with TE buffer assessed as compound level per larva causing mortality after 48 hr
[35] = test system: Helicoverpa armigera; test: Insecticidal activity against fenvalerate-resistant Helicoverpa armigera HDFR third-instar larvae without dsRNA injection assessed as compound level per larva causing mortality after 48 hr
[36] = test system: Helicoverpa armigera; test: Insecticidal activity against fenvalerate-resistant Helicoverpa armigera HDFR third-instar larvae injected with dsCYP6B7-313-1 dsRNA plus dsCPR-403-1 dsRNA and dsCyt-b5-4 dsRNA assessed as compound level per larva causing mortality after 36 hr
[37] = test system: Helicoverpa armigera; test: Insecticidal activity against fenvalerate-resistant Helicoverpa armigera HDFR third-instar larvae injected with dsCYP6B7-313-1 dsRNA plus dsCyt-b5-4 dsRNA assessed as compound level per larva causing mortality after 36 hr
[38] = test system: Helicoverpa armigera; test: Insecticidal activity against fenvalerate-resistant Helicoverpa armigera HDFR third-instar larvae injected with dsCYP6B7-313-1 dsRNA plus dsCPR-403-1 dsRNA assessed as compound level per larva causing mortality after 36 hr
[39] = test system: Helicoverpa armigera; test: Insecticidal activity against fenvalerate-resistant Helicoverpa armigera HDFR third-instar larvae injected with dsCYP6B7-313-1 dsRNA assessed as compound level per larva causing mortality after 36 hr
[40] = test system: Helicoverpa armigera; test: Insecticidal activity against fenvalerate-resistant Helicoverpa armigera HDFR third-instar larvae injected with TE buffer assessed as compound level per larva causing mortality after 36 hr
[41] = test system: Helicoverpa armigera; test: Insecticidal activity against fenvalerate-resistant Helicoverpa armigera HDFR third-instar larvae without dsRNA injection assessed as compound level per larva causing mortality after 36 hr
[42] = test system: Helicoverpa armigera; test: Insecticidal activity against fenvalerate-resistant Helicoverpa armigera HDFR third-instar larvae injected with dsCYP6B7-313-1 dsRNA plus dsCPR-403-1 dsRNA and dsCyt-b5-4 dsRNA assessed as compound level per larva causing mortality after 24 hr
[43] = test system: Helicoverpa armigera; test: Insecticidal activity against fenvalerate-resistant Helicoverpa armigera HDFR third-instar larvae injected with dsCYP6B7-313-1 dsRNA plus dsCyt-b5-4 dsRNA assessed as compound level per larva causing mortality after 24 hr
[44] = test system: Helicoverpa armigera; test: Insecticidal activity against fenvalerate-resistant Helicoverpa armigera HDFR third-instar larvae injected with dsCYP6B7-313-1 dsRNA plus dsCPR-403-1 dsRNA assessed as compound level per larva causing mortality after 24 hr
[45] = test system: Helicoverpa armigera; test: Insecticidal activity against fenvalerate-resistant Helicoverpa armigera HDFR third-instar larvae injected with dsCYP6B7-313-1 dsRNA assessed as compound level per larva causing mortality after 24 hr
[46] = test system: Helicoverpa armigera; test: Insecticidal activity against fenvalerate-resistant Helicoverpa armigera HDFR third-instar larvae injected with TE buffer assessed as compound level per larva causing mortality after 24 hr
[47] = test system: Helicoverpa armigera; test: Insecticidal activity against fenvalerate-resistant Helicoverpa armigera HDFR third-instar larvae without dsRNA injection assessed as compound level per larva causing mortality after 24 hr

SMILES: CC(C)C(C(=O)OC(C#N)c1cccc(Oc2ccccc2)c1)c1ccc(Cl)cc1 (configuration not stated) [FENVALERATE]
- LD50 [1]: 12.6 µg
- LD50 [2]: 19 µg
- LD50 [3]: 16.8 µg
- LD50 [4]: 23.9 µg
- LD50 [5]: 46.8 µg
- LD50 [6]: 48.8 µg
- Ratio [7]: 164
- LD50 [8]: 16.13 µg
- LD50 [9]: 0.0982 µg
- mortality [10]: 44.4%
- mortality [11]: 50%
- Ratio [12]: 1.8
- mortality [13]: 40.7%
- mortality [14]: 38.8%
- Ratio [15]: 3.2
- Ratio [16]: 3.1
- Ratio [17]: 2.4
- Ratio [18]: 2
- Ratio [19]: 3
- Ratio [20]: 2.6
- Ratio [21]: 2.9
- Ratio [22]: 1.6
- Ratio [23]: 3.5
- Ratio [24]: 2.4
- Ratio [25]: 2.9
- Ratio [26]: 3.7
- Ratio [27]: 2.5
- Ratio [28]: 2.8
- Ratio [29]: 2
- LD50 [30]: 6.7 µg
- LD50 [31]: 6.9 µg
- LD50 [32]: 8.9 µg
- LD50 [33]: 10.7 µg
- LD50 [34]: 21.5 µg
- LD50 [35]: 23.1 µg
- LD50 [36]: 8.6 µg
- LD50 [37]: 9.9 µg
- LD50 [38]: 8.9 µg
- LD50 [39]: 16.5 µg
- LD50 [40]: 25.6 µg
- LD50 [41]: 26.1 µg
- LD50 [42]: 10.2 µg
- LD50 [43]: 14.5 µg
- LD50 [44]: 12.3 µg
- LD50 [45]: 19.7 µg
- LD50 [46]: 35.2 µg
- LD50 [47]: 35.7 µg
